Experimental data reported in patent US20080241279A1, “Materials and methods of using calcium for reduction of inflammation” (General Mills, Inc., priority 2004, published 2008).

Conditions: about 1200 mg/day calcium, about −500 kcal diet, about 12 weeks; control group about 20%
Experimental: For example, about eighty (80) obese, but otherwise healthy, men and women (average baseline BMI about 34 kg/m2) with an average CRP of about 6.0 mg/L at baseline could be randomized to about 2 groups for about a 12 week intervention. Both groups would consume reduced calorie diets (about −500 kcal) to promote weight loss, with the calcium intake in “the control group” adjusted to about 500 mg/day and in “the intervention group” adjusted to about 1200 mg/day using a calcium source. […] DEXA and hs-CRP measurement can be performed at baseline and about 12 weeks.

Structure (SMILES): O=C([O-])[O-].[Ca+2] [calcium carbonate]
- fat loss from trunkal region: about 50%
